Laboratory results taken from patent US9315496B2, “Benzopyrone derivative and use thereof” (HUAZHONG UNIVERSITY OF SCIENCE & TECHNOLOGY, priority 2011, dated 2016).
pIC50: −log10 of the molar value.

How the values were obtained:
5-HT2C receptor = 5-HT2C receptor (Rattus norvegicus, UniProt P08909); experiment: 5HT2C receptor binding assay ([3H]-mesulergine, rat brain striatum membrane); details: for inhibition at 10 µM: test compound final concentration 10^−5 M, [3H]-mesulergine, rat brain striatum membrane, read-out: 5HT2C inhibition %
dopamine D2 receptor = dopamine D2 receptor (Rattus norvegicus, UniProt P61169); experiment: D2 receptor binding assay (3H-Spiperone, rat brain striatum membrane); details: for affinity for D2 receptor (in words): in vitro receptor binding assay; for inhibition at 10 µM: read-out: D2 inhibition %
Method: Rats were sacrificed by cervical dislocation on ice. Brain striatum was rapidly taken, and 2 brain striatums were combined into a centrifuge tube, to which 3 ml of buffer (0.05 M Tris-HCl buffer, containing NaCl 120 mM, KCl 5 mM, MgCl2 1 mM, CaCl2 1 mM) was added, homogenization was conducted for 3-4 s at level 4 for four times, and then 5 ml of buffer was then added. The weight of the homogenized tubes were adjusted using a balance, and centrifugation was conducted at 12000 r, 4° C. for 20 min. The supernatant was discarded, and 3 ml of buffer was added (0.05 M Tris-HCl buffer, containing NaCl 120 mM, KCl 5 mM, MgCl2 1 mM, CaCl2 1 mM). Vortex mixer was used for blending, and then 5 ml of buffer was added (0.05 M Tris-HCl buffer, containing NaCl 120 mM, KCl 5 mM, MgCl2 1 mM, CaCl2 1 mM). Centrifugation was conducted (repeated 3 times). After the centrifugations, the supernatant was discarded, and the pellets were stored at −80° C. for future use.
Beckman LS-6500 Multi-function Liquid Scintillation Counter was used.
(1) The prepared membrane was first applied with appropriate amount of homogenized liquid, and homogenizer was used for evenly dispersing. 15 tubes were mixed into a 100 ml container, and appropriate amount of homogenized liquid was added to give 50 ml of membrane suspension, which was reserved for future use.
(2) 100 μL of membrane preparation and 100 μL of buffer were added into each reaction tube.
(3) 100 μL of homogenized liquid was added into the total binding tube (TB), 100 μL of Butaclamol (final concentration 10^−5 M) was added into the non-specific binding tube (NB), and 100 μL of the test compound (final concentration 10^−5 M) was added into the specific binding tube (SB) for each compound.
(5) Each of the reaction tubes was incubated at 37° C. for 20 min. After the reaction was completed, the bound ligands were rapidly filtered under reduced pressure, and the ice-chilled assay buffer was used for adequate washing. The filter was taken out and put into a 3 ml scintillation vial, and 2 ml of toluene scintillation solution was added and blended.
(6) The scintillation vials were put into Liquid Scintillation Counter for counting. Inhibitory rate(1%)=(Total binding tube cpm−compound cpm)/(Total binding tube cpm−non-specific binding tube cpm)×100%
Each assay for the compounds was conducted in duplicate.

5-HT2A receptor = 5-HT2A receptor (Rattus norvegicus, UniProt P14842); experiment: 5HT2A receptor binding assay ([3H]-Ketanserin, rat brain striatum membrane); details: for pIC50: cells marked ^a; for pIC50 / inhibition at 10 µM: [3H]-Ketanserin, rat brain striatum membrane; for inhibition at 10 µM: test compound final concentration 10^−5 M, read-out: 5HT2A inhibition %
D3 receptor = biological target: T1, D3 receptor (Homo sapiens, UniProt P35462); experiment: D3 receptor assay ([3H]-Spiperone, HEK-293 cells); format: binding; details: for inhibition at 10 µM: final concentration 10 μmol/L, [3H]-Spiperone, HEK-293 cells; for affinity for D3 receptor (in words): in vitro receptor binding assay
T1 construct: expressed in transfected cells; host or cells: HEK-293
Method: After the cells were centrifuged at 1000 rpm for 5 min, the supernatant was discarded, and the cell pellet was collected and stored in a −20° C. fridge for reservation. It was re-suspended with Tris-Cl (pH 7.4) in the assay.
Tris was divided into aliquots by Genetimes Technology Inc.
Competitive binding test for receptors: 20 μl of each of the test compounds and 20 μl of the radioactive ligand together with 160 μl of the receptor proteins were added into the reaction tubes, and the final concentrations of the test compound and the positive drug were all 10 μmol/L. After 50 min of incubation in 30° C. water bath, the tubes were immediately moved to ice bath to terminate the reactions. GF/C glass fiber filter papers were used for rapid sucking filtration on a Millipore cell sample collector, elution buffer (50 mM Tris-HCl, PH 7.4) was applied for 3 ml×3 times, and microwave was applied for 4-5 min for drying. The filter papers were moved into 0.5 ml centrifuge tubes, and 500 μl of lipid-soluble scintillation solution was added. The tubes were allowed to stand still for over 30 min in dark, and the intensities of radioactivity were measured by a counter.

5-HT1A receptor = biological target: T2, 5-HT1A receptor (Rattus norvegicus, UniProt P19327); experiment: 5HT1A receptor binding assay (3H-8-OH-DPAT, rat brain striatum membrane); details: for pIC50: cells marked ^a; for pIC50 / inhibition at 10 µM: 3H-8-OH-DPAT, rat brain striatum membrane; for affinity for 5-HT1A receptor (in words): in vitro receptor binding assay; for inhibition at 10 µM: test compound final concentration 10^−5 M
T2 sequence (P19327 1-422): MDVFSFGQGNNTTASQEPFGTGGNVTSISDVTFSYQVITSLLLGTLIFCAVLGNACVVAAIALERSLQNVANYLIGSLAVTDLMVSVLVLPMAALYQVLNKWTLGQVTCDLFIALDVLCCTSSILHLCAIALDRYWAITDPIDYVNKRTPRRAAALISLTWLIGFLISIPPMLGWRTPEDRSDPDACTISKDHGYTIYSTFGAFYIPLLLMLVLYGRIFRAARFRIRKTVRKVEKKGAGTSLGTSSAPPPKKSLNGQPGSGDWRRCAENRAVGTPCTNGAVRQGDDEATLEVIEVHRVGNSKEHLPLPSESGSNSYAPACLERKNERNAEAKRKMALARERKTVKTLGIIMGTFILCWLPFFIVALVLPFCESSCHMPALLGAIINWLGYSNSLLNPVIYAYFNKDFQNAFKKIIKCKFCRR
Method: Incubation at 37° C. was conducted for 10 min, the weight of the tubes were adjusted using a balance after incubation. […] Centrifugation was conducted and repeated 3 times.

Chain of 5-HT2A receptor (P14842 whole entry): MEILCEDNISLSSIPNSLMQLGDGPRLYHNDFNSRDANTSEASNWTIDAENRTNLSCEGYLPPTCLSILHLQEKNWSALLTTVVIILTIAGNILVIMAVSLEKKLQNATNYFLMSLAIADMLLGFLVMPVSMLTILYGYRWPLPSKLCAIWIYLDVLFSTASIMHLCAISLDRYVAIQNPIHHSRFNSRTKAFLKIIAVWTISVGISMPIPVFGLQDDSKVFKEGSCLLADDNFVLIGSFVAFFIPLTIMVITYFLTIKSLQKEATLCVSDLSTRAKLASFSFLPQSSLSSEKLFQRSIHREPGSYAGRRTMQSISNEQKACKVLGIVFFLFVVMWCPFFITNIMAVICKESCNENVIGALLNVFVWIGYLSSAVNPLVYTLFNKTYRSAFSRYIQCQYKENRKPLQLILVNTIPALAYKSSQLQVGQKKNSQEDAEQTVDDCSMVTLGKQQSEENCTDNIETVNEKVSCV
T1 sequence (P35462 whole entry): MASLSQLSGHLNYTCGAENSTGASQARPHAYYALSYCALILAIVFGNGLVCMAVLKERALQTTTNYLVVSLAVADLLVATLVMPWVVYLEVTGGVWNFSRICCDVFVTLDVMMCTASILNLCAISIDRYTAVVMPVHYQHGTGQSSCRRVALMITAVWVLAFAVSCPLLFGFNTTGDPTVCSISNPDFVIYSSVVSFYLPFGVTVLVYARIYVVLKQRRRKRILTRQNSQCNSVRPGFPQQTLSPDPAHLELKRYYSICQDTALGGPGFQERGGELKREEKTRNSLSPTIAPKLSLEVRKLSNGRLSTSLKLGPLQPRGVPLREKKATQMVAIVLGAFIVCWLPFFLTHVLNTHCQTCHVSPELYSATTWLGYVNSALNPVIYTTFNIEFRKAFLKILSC
Chain of 5-HT2C receptor (P08909 33-460): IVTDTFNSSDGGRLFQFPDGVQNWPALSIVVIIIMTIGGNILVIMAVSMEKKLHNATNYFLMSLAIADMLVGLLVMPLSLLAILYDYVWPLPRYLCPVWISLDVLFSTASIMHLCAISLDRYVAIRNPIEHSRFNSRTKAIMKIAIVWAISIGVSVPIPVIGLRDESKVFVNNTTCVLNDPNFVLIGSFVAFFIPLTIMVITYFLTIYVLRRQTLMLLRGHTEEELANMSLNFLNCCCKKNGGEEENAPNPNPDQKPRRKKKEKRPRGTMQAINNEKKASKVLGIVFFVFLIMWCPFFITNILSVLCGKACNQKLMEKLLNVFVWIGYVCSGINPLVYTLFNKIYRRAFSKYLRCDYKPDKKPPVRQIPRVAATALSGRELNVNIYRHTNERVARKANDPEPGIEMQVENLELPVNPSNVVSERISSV
Chain of dopamine D2 receptor (P61169 whole entry): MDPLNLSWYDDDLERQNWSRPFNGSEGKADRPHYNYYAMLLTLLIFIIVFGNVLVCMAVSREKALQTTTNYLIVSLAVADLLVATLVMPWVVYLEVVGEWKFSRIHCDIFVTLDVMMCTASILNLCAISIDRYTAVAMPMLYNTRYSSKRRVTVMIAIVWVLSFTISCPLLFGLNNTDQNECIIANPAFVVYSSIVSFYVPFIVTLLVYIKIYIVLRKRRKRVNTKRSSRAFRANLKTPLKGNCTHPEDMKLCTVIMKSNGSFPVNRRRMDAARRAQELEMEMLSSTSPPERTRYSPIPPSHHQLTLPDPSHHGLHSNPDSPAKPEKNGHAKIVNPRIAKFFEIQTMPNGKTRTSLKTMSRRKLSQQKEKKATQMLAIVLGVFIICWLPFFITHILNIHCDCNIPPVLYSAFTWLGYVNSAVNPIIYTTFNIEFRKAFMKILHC

Structure (SMILES) | melting point [°C] | affinity for 5-HT2C receptor (in words) (5-HT2C receptor) | inhibition at 10 µM (5-HT2C receptor) [%] | affinity for D2 receptor (in words) (dopamine D2 receptor) | inhibition at 10 µM (dopamine D2 receptor) [%] | affinity for 5-HT2A receptor (in words) (5-HT2A receptor) | pIC50 (5-HT2A receptor) | inhibition at 10 µM (D3 receptor) [%] | affinity for D3 receptor (in words) (D3 receptor) | pIC50 (5-HT1A receptor) | affinity for 5-HT1A receptor (in words) (5-HT1A receptor) | inhibition at 10 µM (5-HT2A receptor) [%] | inhibition at 10 µM (5-HT1A receptor) [%]
Cc1cc(=O)oc2c(Cl)c(OCCCN3CCN(c4nsc5ccccc45)CC3)ccc12 [Compound 22, 7-(3-(4-(3-(1,2-benzisothiazole)-1-piperazinyl)-n-propoxy))-4-methyl-8-chloro-2H-benzopyran-2-one] | 162 to 164 | lower affinities | 99.8 | relatively stronger affinities | 112 | relatively stronger affinities | 8.16 | 104 | relatively stronger affinities | 7.89 | relatively stronger affinities |  | 
CCCc1cc(=O)oc2cc(OCCCCN3CCC(c4noc5cc(F)ccc45)CC3)ccc12 [Compound 25, 7-(4-(4-(3-(6-fluoro-benzisoxazole)-1-piperidyl)-n-butoxy))-4-n-propyl-2H-benzopyran-2-one] | 139 to 141 |  |  |  | 70.7 |  |  |  |  |  |  | 40.2 | 84.5
O=c1cc(C(F)(F)F)c2ccc(OCCCN3CCC(c4noc5cc(F)ccc45)CC3)cc2o1 [Compound 15, 7-(3-(4-(3-(6-fluoro-benzisoxazole)-1-piperidyl)-n-propoxy))-4-(trifluoromethyl)-2H-benzopyran-2-one] | 146 to 148 |  |  |  | 94.6 |  |  |  |  |  |  | 83.3 | 107
O=c1cc(-c2ccccc2)c2ccc(OCCCCN3CCN(c4nsc5ccccc45)CC3)cc2o1 [Compound 14, 7-(4-(4-(3-(1,2-benzisothiazole)-1-piperazinyl)-n-butoxy))-4-phenyl-2H-benzopyran-2-one] | 116 to 118 |  |  |  | 68.6 |  |  |  |  |  |  | 83.4 | 95.5
O=c1cc(CO)c2ccc(OCCCN3CCC(c4noc5cc(F)ccc45)CC3)cc2o1 [Compound 30, 7-(3-(4-(3-(6-fluoro-benzisoxazole)-1-piperidyl)-n-propoxy))-4-hydroxymethyl-2H-benzopyran-2-one] | 144 to 146 |  |  |  | 20.3 |  |  |  |  |  |  | 98.5 | 82.8
Cc1cc(=O)oc2c(Cl)c(OCCCCN3CCN(c4nsc5ccccc45)CC3)ccc12 [Compound 20, 7-(4-(4-(3-(1,2-benzisothiazole)-1-piperazinyl)-n-butoxy))-4-methyl-8-chloro-2H-benzopyran-2-one] | 133 to 135 |  |  |  | 9.7 |  |  |  |  |  |  | 15.5 | 92.8
O=c1cc(C(F)(F)F)c2ccc(OCCCCN3CCC(c4noc5cc(F)ccc45)CC3)cc2o1 [Compound 17, 7-(4-(4-(3-(6-fluoro-benzisoxazole)-1-piperidyl)-n-butoxy))-4-(trifluoromethyl)-2H-benzopyran-2-one] | 125 to 127 |  |  |  | 92.3 |  |  |  |  |  |  | 95.9 | 101
Cc1cc(=O)oc2cc(OCC(O)CN3CCC(c4noc5cc(F)ccc45)CC3)ccc12 (centres unmarked) [Compound 32, 7-(3-(4-(3-(6-fluoro-benzisoxazole)-1-piperidyl)-2-hydroxylpropoxy))-4-methyl-2H-benzopyran-2-one] | 183 to 185 |  |  |  | 62.6 |  |  |  |  |  |  | 157 | 103
O=c1ccc2ccc(OCCCN3CCC(c4noc5cc(F)ccc45)CC3)cc2o1 [Compound 3, 7-(3-(4-(3-(6-fluoro-benzisoxazole)-1-piperidyl)-n-propoxy))-2H-benzopyran-2-one] | 128 to 130 |  |  |  | 106 |  |  |  |  |  |  | 101 | 42.3
O=c1ccc2ccc(OCCCN3CCN(c4nsc5ccccc45)CC3)cc2o1 [Compound 4, 7-(3-(4-(3-(1,2-benzisothiazole)-1-piperazinyl)-n-propoxy))-2H-benzopyran-2-one] | 91 to 93 |  |  |  | 49.2 |  |  |  |  |  |  | 59.1 | 101
CCc1cc(=O)oc2cc(OCCCCN3CCN(c4nsc5ccccc45)CC3)ccc12 [Compound 28, 7-(4-(4-(3-(1,2-benzisothiazole)-1-piperazinyl)-n-butoxy))-4-ethyl-2H-benzopyran-2-one] | 110 to 112 |  |  |  | 58.8 |  |  |  |  |  |  | 56.1 | 11
Cc1cc(=O)oc2cc(OCCCCN3CCN(c4nsc5ccccc45)CC3)ccc12 [Compound 5, 7-(4-(4-(3-(1,2-benzisothiazole)-1-piperazinyl)-n-butoxy))-4-methyl-2H-benzopyran-2-one] | 110 to 112 |  |  |  | 88.5 |  |  |  |  |  |  | 104 | 114
O=c1cc(CO)c2ccc(OCCCCN3CCC(c4noc5cc(F)ccc45)CC3)cc2o1 [Compound 31, 7-(4-(4-(3-(6-fluoro-benzisoxazole)-1-piperidyl)-n-butoxy))-4-hydroxymethyl-2H-benzopyran-2-one] | 160 to 162 |  |  |  | 2.4 |  |  |  |  |  |  | 1.8 | 63.9
Cc1cc(=O)oc2c(Cl)c(OCCCN3CCC(c4noc5cc(F)ccc45)CC3)ccc12 [Compound 21, 7-(3-(4-(3-(6-fluoro-benzisoxazole)-1-piperidyl)-n-propoxy))-4-methyl-8-chloro-2H-benzopyran-2-one] | 185 to 187 |  |  |  | 32.9 |  |  |  |  |  |  | 90.1 | 101
Cc1cc(=O)oc2c(C)c(OCCCCN3CCN(c4nsc5ccccc45)CC3)ccc12 [Compound 24, 7-(4-(4-(3-(1,2-benzisothiazole)-1-piperazinyl)-n-butoxy))-4-8-dimethyl-2H-benzopyran-2-one] | 106 to 108 |  |  |  | 98.1 |  |  |  |  |  |  | 97.4 | 105
O=c1cc(-c2ccccc2)c2ccc(OCCCN3CCN(c4nsc5ccccc45)CC3)cc2o1 [Compound 12, 7-(3-(4-(3-(1,2-benzisothiazole)-1-piperazinyl)-n-propoxy))-4-phenyl-2H-benzopyran-2-one] |  | lower affinities | 93.4 | relatively stronger affinities | 124 | relatively stronger affinities | 8.03 | 103 | relatively stronger affinities | 6.90 | relatively stronger affinities |  | 
O=c1cc(-c2ccccc2)c2ccc(OCCCN3CCC(c4noc5cc(F)ccc45)CC3)cc2o1 [Compound 11, 7-(3-(4-(3-(6-fluoro-benzisoxazole)-1-piperidyl)-n-propoxy))-4-phenyl-2H-benzopyran-2-one] | 185 to 187 |  |  |  | 18.5 |  |  |  |  |  |  | 57.8 | 35.3
Cc1cc(=O)oc2cc(OC/C=C/CN3CCC(c4noc5cc(F)ccc45)CC3)ccc12 [Compound 10, (E)-7-(4-(4-(3-(6-fluoro-benzisoxazole)-3-piperidyl)-but-2-enyloxy))-4-methyl-2H-benzopyran-2-one] | 129 to 130 |  |  |  | 111 |  |  |  |  |  |  | 109 | 102
Cc1cc(=O)oc2cc(OCCCN3CCN(c4nsc5ccccc45)CC3)ccc12 [Compound 8, 7-(3-(4-(3-(1,2-benzisothiazole)-1-piperazinyl)-n-propoxy))-4-methyl-2H-benzopyran-2-one] | 113 to 115 |  |  |  | 73.8 |  |  |  |  |  |  | 88.6 | 98.5
